Data as given in paper PMC8557888, “Intracellular Accumulation of Novel and Clinically Used TB Drugs Potentiates Intracellular Synergy” (Microbiology Spectrum, 2021).
Several values for one entry are separate records, joined by “and”; a condition that tells them apart may be missing. Identical values can stand only once. Like-named read-outs stand apart in the source and are kept apart here.

Columns and labels:
in vitro = details: human
THP-1 cells [1] = details: human, 5 μg/ml
[2] = tested on: M. smegmatis-infected THP-1 cells
M. tuberculosis H37Rv [3] = test: Intracellular efficacy (CFU plating) in M. tuberculosis-infected THP-1 cells; format: cell-based, Mycobacterium tuberculosis; details: M. tuberculosis H37Rv-infected THP-1 cells, 20× MIC, 96-h assay; for decrease in bacterial count from starting count: given as size of decrease; for change in bacterial count compared to starting bacterial count: signed value
[4] = cited from earlier work
[5] = cited from earlier work; remark: listed apart in the source
[6] = tested on: M. tuberculosis-infected THP-1 cells; details: 20× MIC
Procedure: An intracellular accumulation ratio, defined as the intracellular compound concentration divided by the extracellular concentration, was used in this study to allow comparison between compounds (Fig. 5B).
The intracellular accumulation of the combination of PhX1 and WHN296 in the M. tuberculosis-infected THP-1 cell model was evaluated using quantitative LC-MS/MS at time points of 24, 48, 72, and 96 h (n = 3 for each time point). In this experiment, intracellular drug concentrations are reported in ng/ml to allow comparisons to be made with the minimum compound levels required to achieve synergy.
THP-1 cells were grown in RPMI medium containing 10% FCS at 37°C in 5% CO2. Cells were seeded and differentiated according to the above protocol for 24 h using PMA. M. tuberculosis (H37RvMa) cells were grown to mid-log phase in 7H9 medium. THP-1 cells were infected at an MOI of 5. Following 3 h of infection, wells were washed with RPMI medium to remove extracellular bacteria and dead cells. RPMI medium containing a predetermined concentration of compound was added to each well in triplicate. The solution was allowed to equilibrate for 30 min. In addition, three wells were left without drug treatment (following M. tuberculosis infection) and served as untreated controls, while an additional three wells of THP-1 cells were left uninfected and were used as uninfected controls. Thereafter, at each time point, cells were washed with RPMI medium. This was followed by the addition of EDTA (5 mM), after which 5 min was allowed for the cells to detach. Trypan blue-stained cells were counted using the automated cell counter. The remaining supernatant (150 μl) was added directly to an Eppendorf tube containing chloroform/methanol (3:1, vol/vol) and 1 μg/ml of compound-specific internal standard (deuterated internal standard for known anti-TB compounds and carbamazepine for novel compounds). […] Samples were processed using quantitative LC-MS/MS assays. […] These were then used to construct calibration curves, which were subsequently used to quantitate the amount of analyte in each respective sample.

M. tuberculosis H37Rv [7] = details: cited from earlier work
THP-1 cells [8] = test: Intracellular accumulation in uninfected THP-1 cells (LC-MS/MS); details: 5 μg/ml of each compound, 48 h
[9] = male, C57BL/6, mouse, in vivo, po, 10 mg/kg
[10] = THP-1 cell viability during accumulation experiment (trypan blue); details: human
M. tuberculosis = test: Two-dimensional checkerboard synergy assay; format: cell-based, Mycobacterium tuberculosis; details: PhX1/WHN296 combination
M. smegmatis = format: cell-based, Mycobacterium smegmatis
[11] = PhX1 concentrations in murine plasma, epithelial lining fluid and alveolar macrophages (BAL procedure, LC-MS/MS); details: mice; for Kp / AUC / Cmax: male, C57BL/6, mouse, in vivo, 10 mg/kg; for AUC: 24 h

C[C@H]1COc2c(N3CCN(C)CC3)c(F)cc3c(=O)c(C(=O)O)cn1c23 [Levofloxacin, levofloxacin]
viability at 48 h, 5 μg/ml (in vitro): 95 ± 4.2%
Equilibrium level reached (intracellular concentration) (THP-1 cells [1]; 48 h): 860 ± 56.5 ng/mL

CCN(CC)c1ccc2nc3c4ccccc4c(=Nc4ccccn4)cc-3oc2c1 [PhX6]
intracellular accumulation compared among phenoxazines [2]: only compound accumulating to higher levels

COc1c(N2C[C@@H]3CCCN[C@@H]3C2)c(F)cc2c(=O)c(C(=O)O)cn(C3CC3)c12 [moxifloxacin]
decrease in bacterial count from starting count (M. tuberculosis H37Rv [3]): approximately 0.5 log10CFU/ml
change in bacterial count compared to starting bacterial count (M. tuberculosis H37Rv [3]): −0.5 log10CFU/ml
log ratio ELF/plasma [4]: 1.5
viability at 48 h, 5 μg/ml (in vitro): 87 ± 2.7%
Cmax in epithelial lining fluid ([5]; human, in vivo): approximately 10 μg/ml
plasma Cmax ([5]; human, in vivo): approximately 4 μg/ml
concentration in plasma at the 24-h time point ([5]; once-off 400 mg oral dose, healthy volunteers): 5000 ng/mL
intracellular accumulation ratio (intracellular/extracellular concentration) [6]: 5.4
Equilibrium level reached (intracellular concentration) (THP-1 cells [1]; 48 h): 3,374 ± 48.7 ng/ml

CCCCCCCCCCOc1cc2c(=O)c(C(=O)NCCOCCO)cn(CC)c2cc1OCC [RMB041]
decrease in bacterial count from starting count (M. tuberculosis H37Rv [3]): 0.1 log10CFU/ml
viability at 48 h, 5 μg/ml (in vitro): 97 ± 2.5%
MIC90 (M. tuberculosis H37Rv [7]; M. tuberculosis H37Rv in vitro): 1.61 µM
intracellular accumulation ratio (intracellular/extracellular concentration) [6]: 0.25
Equilibrium level reached (intracellular concentration) (THP-1 cells [1]; 48 h): 953.5 ± 28.2 ng/mL

CCc1cc(C(N)=S)ccn1 [ethionamide]
log ratio ELF/plasma ([4]; in vivo): 2.8

CC(C)=CCC/C(C)=C/CN1CCN([C@@H]2O[C@@H]3O[C@@]4(C)CC[C@H]5[C@H](C)CC[C@@H]([C@H]2C)[C@@]35OO4)CC1 [WHN296]
viability at 48 h, 5 μg/ml (in vitro): 98 ± 1.2%
MIC90 (M. tuberculosis H37Rv [7]; M. tuberculosis H37Rv in vitro): 18 µM
Equilibrium level reached (intracellular concentration) (THP-1 cells [1]; 48 h): 613.5 ± 19.2 ng/mL

NC(=O)c1cnccn1 [pyrazinamide]
log ratio ELF/plasma ([4]; in vivo): 3.2

O=C(NN=C(c1ccccn1)c1ccccn1)c1ccncc1 [DPINH]
Equilibrium level reached (intracellular concentration) (THP-1 cells [8]): 1,280 ± 113.1 ng/ml

CCN(CC)c1ccc2nc3c4ccccc4/c(=N\c4ccccc4)cc-3oc2c1 [PhX1]
decrease in bacterial count from starting count (M. tuberculosis H37Rv [3]): 0.8 log10CFU/ml
change in bacterial count compared to starting bacterial count (M. tuberculosis H37Rv [3]): −0.8 log10CFU/ml
time plasma concentration above M. tuberculosis MIC90 [9]: approximately 6 h
viability at 48 h, 5 μg/ml [10]: 92 ± 5.8%
Equilibrium level reached (intracellular concentration) (THP-1 cells [8]): 4,750 ± 127.2 ng/ml
minimum value required to produce synergy (2D-synergy level) (M. tuberculosis): 153.1 ng/mL
change in M. smegmatis-associated green fluorescence (M. smegmatis): no significant change
MIC90 (M. tuberculosis H37Rv [7]; M. tuberculosis H37Rv in vitro): 0.19 µM and 0.194 µM
increase in efficacy against in vitro M. tuberculosis over PhX6 (M. tuberculosis H37Rv [7]; PhX1 vs PhX6): 2 fold
MIC90 (M. tuberculosis H37Rv [7]; line printed in Fig 2): 0.089 µg/mL
intracellular accumulation compared among phenoxazines [2]: significantly higher than those of the majority of the other phenoxazines
time to steady state of accumulation ([2]; human): 2 h
Kp ([11]; ELFAUC/plasmaAUC): 1.7
AUC ([11]; po, AUC in epithelial lining fluid cells (alveolar macrophages), 10 mg/kg oral, ELF cells): 5020 ng·h/mL
AUC ([11]; po, AUC in epithelial lining fluid, 10 mg/kg oral, ELF): 2090 ng·h/mL
AUC ([11]; po, AUC in plasma, 10 mg/kg oral, plasma): 1170 ng·h/mL
Cmax ([11]; po, Cmax in epithelial lining fluid cells (alveolar macrophages), 10 mg/kg oral, ELF cells): 895 ± 23 ng/mL
Cmax ([11]; po, Cmax in epithelial lining fluid, 10 mg/kg oral, ELF): 452 ± 22 ng/mL
Cmax ([11]; po, Cmax in plasma, 10 mg/kg oral, plasma): 200 ± 75 ng/mL
Kp ([11]; po, ELF AUC relative to plasma, 10 mg/kg oral): ~2
Kp ([11]; po, ELF cell AUC relative to plasma, 10 mg/kg oral): ~4
ELF cell AUC relative to epithelial lining fluid ([11]; 10 mg/kg oral): 2 fold
time above MIC90 in epithelial lining fluid ([11]; 10 mg/kg oral, ELF): 8 h
log ratio of epithelial lining fluid to plasma concentration ([11]; single-point values such as Cmax): 0.65

NNC(=O)c1ccncc1 [isoniazid]
log ratio ELF/plasma ([4]; in vivo): 1

CC(=O)NC[C@H]1CN(c2ccc(N3CCOCC3)c(F)c2)C(=O)O1 [linezolid]
log ratio ELF/plasma [4]: 0.7
viability at 48 h, 5 μg/ml (in vitro): 92 ± 3.1%
time to reach equilibrium level / steady state (THP-1 cells [1]): ≤ 15 min
Equilibrium level reached (intracellular concentration) (THP-1 cells [1]; 48 h): 770 ± 14.1 ng/mL

COc1nc2ccc(Br)cc2cc1[C@@H](c1ccccc1)[C@@](O)(CCN(C)C)c1cccc2ccccc12 [bedaquiline]
decrease in bacterial count from starting count (M. tuberculosis H37Rv [3]): 1.5 log10CFU/ml
change in bacterial count compared to starting bacterial count (M. tuberculosis H37Rv [3]): −1.5 log10CFU/ml
viability at 48 h, 5 μg/ml (in vitro): 93 ± 4.9%
intracellular accumulation ratio (intracellular/extracellular concentration) [6]: 5.5
time to reach equilibrium level / steady state (THP-1 cells [1]): ≤ 30 min
Equilibrium level reached (intracellular concentration) (THP-1 cells [1]; 48 h): 4,410 ± 190.9 ng/ml
equilibrium level (intracellular) (THP-1 cells [1]; 48 h): greater than 4 μg/ml

CO[C@H]1/C=C/O[C@@]2(C)Oc3c(C)c(O)c4c(O)c(c(/C=N/N5CCN(C)CC5)c(O)c4c3C2=O)NC(=O)/C(C)=C\C=C\[C@H](C)[C@H](O)[C@@H](C)[C@@H](O)[C@@H](C)[C@H](OC(C)=O)[C@@H]1C [rifampin]
decrease in bacterial count from starting count (M. tuberculosis H37Rv [3]): approximately 1.5 log10CFU/ml
change in bacterial count compared to starting bacterial count (M. tuberculosis H37Rv [3]): −1.5 log10CFU/ml
log ratio ELF/plasma ([4]; in vivo): 0.7
viability at 48 h, 5 μg/ml (in vitro): 89 ± 2.4%
maximum concentration in epithelial lining fluid ([5]; human, in vivo): approximately 2 μg/ml
Equilibrium level reached (intracellular concentration) (THP-1 cells [1]; 48 h): 3,050 ± 62.9 ng/ml
